Laboratory results: patent publication US10611771B2, “Pyrazolo [3,4-d] pyrimidine derivative” (WEST CHINA HOSPITAL, SICHUAN UNIVERSITY, priority 2016, dated 2020)
Several values for one entry are separate records, joined by “and”; a condition that tells them apart may be missing. Identical values can stand only once.

Columns and labels:
H1299 cells = assay: MTT detection method, inhibitory effect against H1299 cells; format: cell-based
Excerpt: (§1) MTT detection method was used, and MTT is a yellow compound and a dye accepting hydrogen ions, and can be used as the respiratory chain in mitochondria of viable cells. Under the action of succinate dehydrogenase and cytochrome C, the tetrazolium ring broke to form blue formanzan crystal, and the formation amount of formanzan crystal was only directly proportional to the viable counts. The formanzan crystal formed by reduction can dissolve in dimethyl sulfoxide (DMSO), and the optical density (OD) value can be determined at 490 nm using ELISA, to reflect the viable counts.
(§2) • Lung cancer cell lines: A549 and H1299. • Experimental materials: lung cancer cell lines, instruments and tools for cell culture, MTT, the compound mother liquid (10 mmol/L), and the positive control drug Src inhibitor pp1. 1. Specific Method • (3-1) Cell lines A549 and H1299 were recovered, and when the cells were in good conditions, namely cells grew to about 80% after one passage (i.e. the logarithmic growth phase), the cells were planked (96-well plate). • (3-2) Firstly, cells were collected, and the concentration of cell suspension was adjusted with counting chamber. Cells were seeded in 96-well plate at 1000˜10000 cells/well, and the detailed cell numbers in each well were dependent on the growth rate of different cells and the action time of drugs. A549 cells were seeded at 5000 cells, while H1299 cells were also seeded at 5000 cells, 200 μl for each well (100 μl cell suspension+100 μl drug dilution at different concentration gradient). The edge wells (36) were added 200 μl culture media (for prevention of edge effect). • (3-3) After planking and adding drugs, the plate was treated at 24 h, 48 h, and 72 h, and then for coloration, each well was added 200 μl culture media containing 20 μl MTT solution (5 mg/mL). The plate was continually cultured for 1˜4 hours, the incubation was stopped, and the culture supernatant fluid in each well was carefully absorbed. For suspension cells, the culture supernatant fluid in each well need be centrifuged before drawing. 150 μl DMSO was added to each well, and the plate was shaken on a shaking table for 15˜20 min, to allow the crystals to be completely dissolved. • (3-4) Colorimetry: The colorimetry was performed by ELISA, and the optical absorption value of each well was tested at a wavelength of 490 nm or 570 nm, and the result was recorded. • (3-5) Calculation Inhibition ratio=(the control−the drug)/the control×100% • IC50 (50% inhibitory concentration) can be calculated by spass software based on the inhibitory ratio at different concentration. II. Experimental Results • A549 cells were treated at 4 h, 24 h, 48 h, 72 h, and the drug dose was divided into the light concentration group (10 μm, 25 μm, 40 μm) and the high concentration group (50 μm, 80 μm, 100 μm), that were seeded at 6000 cells/well and 5000 cells/well, respectively, to carry out the experiment.
H1299 cells were seeded at 5000 cells/well, and after treatment for 4 h, 24 h, 48 h, and 72 h, the results were shown in Tables 5-9 and FIGS. 5-8: […]

A549 cells = assay: MTT detection method, inhibitory effect against A549 cells; format: cell-based
Excerpt: as §1, §2

Question: What does the source list for `CC(C)(C)n1nc(-c2ccc(OCCOCCOCCOCCO)cc2)c2c(N)ncnc21` [Compound 5, 2-(2-(2-(2-(4-(4-amino-1-tert-butyl-1H-pyrazolo[3,4-d]pyrimidin-3-)phenoxy)ethoxy)ethoxy)ethoxy)ethanol]?
Answer: The inhibitory ratio (%) for three parallel assays (H1299 cells; 4 h, 10 μm): 4% and 6%; The mean inhibitory ratio (%) (H1299 cells; 4 h, 10 μm): 4%; The inhibitory ratio (%) for three parallel assays (H1299 cells; 4 h, 25 μm): 6% and 7%; The mean inhibitory ratio (%) (H1299 cells; 4 h, 25 μm): 7%; The inhibitory ratio (%) for three parallel assays (H1299 cells; 4 h, 40 μm): 7% and 8%; The mean inhibitory ratio (%) (H1299 cells; 4 h, 40 μm): 8%; The inhibitory ratio (%) for three parallel assays (H1299 cells; 4 h, 50 μm): 13% and 9%; The mean inhibitory ratio (%) (H1299 cells; 4 h, 50 μm): 10%; The inhibitory ratio (%) for three parallel assays (H1299 cells; 4 h, 80 μm): 12% and 13%; The mean inhibitory ratio (%) (H1299 cells; 4 h, 80 μm): 12%; The inhibitory ratio (%) for three parallel assays (H1299 cells; 4 h, 100 μm): 13% and 15% and 14%; The mean inhibitory ratio (%) (H1299 cells; 4 h, 100 μm): 14%; The inhibitory ratio (%) for three parallel assays (H1299 cells; 24 h, 10 μm): 10% and 8% and 13%; The mean inhibitory ratio (%) (H1299 cells; 24 h, 10 μm): 11%; The inhibitory ratio (%) for three parallel assays (H1299 cells; 24 h, 25 μm): 14% and 13%; The mean inhibitory ratio (%) (H1299 cells; 24 h, 25 μm): 14%; The inhibitory ratio (%) for three parallel assays (H1299 cells; 24 h, 40 μm): 11% and 13% and 14%; The mean inhibitory ratio (%) (H1299 cells; 24 h, 40 μm): 13%; The inhibitory ratio (%) for three parallel assays (H1299 cells; 24 h, 50 μm): 20% and 25% and 26%; The mean inhibitory ratio (%) (H1299 cells; 24 h, 50 μm): 24%; The inhibitory ratio (%) for three parallel assays (H1299 cells; 24 h, 80 μm): 28% and 26% and 24%; The mean inhibitory ratio (%) (H1299 cells; 24 h, 80 μm): 26%; The inhibitory ratio (%) for three parallel assays (H1299 cells; 24 h, 100 μm): 29% and 31% and 26%; The mean inhibitory ratio (%) (H1299 cells; 24 h, 100 μm): 28%; The inhibitory ratio (%) for three parallel assays (H1299 cells; 48 h, 10 μm): 4% and 5% and 6%; The mean inhibitory ratio (%) (H1299 cells; 48 h, 10 μm): 5%; The inhibitory ratio (%) for three parallel assays (H1299 cells; 48 h, 25 μm): 15% and 18% and 14%; The mean inhibitory ratio (%) (H1299 cells; 48 h, 25 μm): 16%; The inhibitory ratio (%) for three parallel assays (H1299 cells; 48 h, 40 μm): 22% and 25%; The mean inhibitory ratio (%) (H1299 cells; 48 h, 40 μm): 23%; The inhibitory ratio (%) for three parallel assays (H1299 cells; 48 h, 50 μm): 24% and 26%; The mean inhibitory ratio (%) (H1299 cells; 48 h, 50 μm): 25%; The inhibitory ratio (%) for three parallel assays (H1299 cells; 48 h, 80 μm): 36% and 38%; The mean inhibitory ratio (%) (H1299 cells; 48 h, 80 μm): 37%; The inhibitory ratio (%) for three parallel assays (H1299 cells; 48 h, 100 μm): 42% and 41%; The mean inhibitory ratio (%) (H1299 cells; 48 h, 100 μm): 41%; The inhibitory ratio (%) for three parallel assays (H1299 cells; 72 h, 10 μm): 8% and 5% and 2%; The mean inhibitory ratio (%) (H1299 cells; 72 h, 10 μm): 5%; The inhibitory ratio (%) for three parallel assays (H1299 cells; 72 h, 25 μm): 7% and 4% and 3%; The mean inhibitory ratio (%) (H1299 cells; 72 h, 25 μm): 5%; The inhibitory ratio (%) for three parallel assays (H1299 cells; 72 h, 40 μm): 18% and 21% and 23%; The mean inhibitory ratio (%) (H1299 cells; 72 h, 40 μm): 20%; The inhibitory ratio (%) for three parallel assays (H1299 cells; 72 h, 50 μm): 26% and 23%; The mean inhibitory ratio (%) (H1299 cells; 72 h, 50 μm): 24%; The inhibitory ratio (%) for three parallel assays (H1299 cells; 72 h, 80 μm): 37% and 36% and 38%; The mean inhibitory ratio (%) (H1299 cells; 72 h, 80 μm): 37%; The inhibitory ratio (%) for three parallel assays (H1299 cells; 72 h, 100 μm): 45% and 41% and 39%; The mean inhibitory ratio (%) (H1299 cells; 72 h, 100 μm): 42%; The inhibitory ratio (%) for three parallel assays (A549 cells; 4 h, 10 μm): 26.88% and 26.25% and 28.75%; The mean inhibitory ratio (%) (A549 cells; 4 h, 10 μm): 27.29%; The mean inhibitory ratio (%) (A549 cells; 4 h, 25 μm): 21.77%; The inhibitory ratio (%) for three parallel assays (A549 cells; 4 h, 40 μm): 23.44% and 20.94% and 18.13%; The mean inhibitory ratio (%) (A549 cells; 4 h, 40 μm): 20.83%; The inhibitory ratio (%) for three parallel assays (A549 cells; 4 h, 50 μm): 16.57% and 11.14% and 14.57%; The mean inhibitory ratio (%) (A549 cells; 4 h, 50 μm): 14.10%; The inhibitory ratio (%) for three parallel assays (A549 cells; 4 h, 80 μm): 20.86% and 20.29% and 14.57%; The mean inhibitory ratio (%) (A549 cells; 4 h, 80 μm): 18.57%; The inhibitory ratio (%) for three parallel assays (A549 cells; 4 h, 100 μm): 24.00% and 20.86% and 22.57%; The mean inhibitory ratio (%) (A549 cells; 4 h, 100 μm): 22.48%; The inhibitory ratio (%) for three parallel assays (A549 cells; 24 h, 10 μm): 14.35% and 15.65% and 13.26%; The mean inhibitory ratio (%) (A549 cells; 24 h, 10 μm): 14.42%; The inhibitory ratio (%) for three parallel assays (A549 cells; 24 h, 25 μm): 22.39% and 13.70% and 14.78%; The mean inhibitory ratio (%) (A549 cells; 24 h, 25 μm): 16.96%; The inhibitory ratio (%) for three parallel assays (A549 cells; 24 h, 40 μm): 26.30% and 16.52% and 14.13%; The mean inhibitory ratio (%) (A549 cells; 24 h, 40 μm): 18.99%; The inhibitory ratio (%) for three parallel assays (A549 cells; 24 h, 50 μm): 17.08% and 18.33% and 17.92%; The mean inhibitory ratio (%) (A549 cells; 24 h, 50 μm): 17.78%; The inhibitory ratio (%) for three parallel assays (A549 cells; 24 h, 80 μm): 22.50% and 20.83% and 20.21%; The mean inhibitory ratio (%) (A549 cells; 24 h, 80 μm): 21.18%; The inhibitory ratio (%) for three parallel assays (A549 cells; 24 h, 100 μm): 27.92% and 27.50%; The mean inhibitory ratio (%) (A549 cells; 24 h, 100 μm): 27.78%; The mean inhibitory ratio (%) (A549 cells; 48 h, 10 μm): 9.64%; The inhibitory ratio (%) for three parallel assays (A549 cells; 48 h, 25 μm): 14.84% and 14.22% and 13.91%; The mean inhibitory ratio (%) (A549 cells; 48 h, 25 μm): 14.32%; The inhibitory ratio (%) for three parallel assays (A549 cells; 48 h, 40 μm): 19.22% and 26.72% and 20.63%; The mean inhibitory ratio (%) (A549 cells; 48 h, 40 μm): 22.19%; The inhibitory ratio (%) for three parallel assays (A549 cells; 48 h, 50 μm): 15.33% and 13.33% and 12.83%; The mean inhibitory ratio (%) (A549 cells; 48 h, 50 μm): 13.83%; The inhibitory ratio (%) for three parallel assays (A549 cells; 48 h, 80 μm): 15.33% and 19.67% and 18.00%; The mean inhibitory ratio (%) (A549 cells; 48 h, 80 μm): 17.67%; The inhibitory ratio (%) for three parallel assays (A549 cells; 48 h, 100 μm): 30.50% and 31.33% and 31.67%; The mean inhibitory ratio (%) (A549 cells; 48 h, 100 μm): 31.17%; The inhibitory ratio (%) for three parallel assays (A549 cells; 72 h, 10 μm): 9.82% and 8.11% and 15.05%; The mean inhibitory ratio (%) (A549 cells; 72 h, 10 μm): 10.99%; The inhibitory ratio (%) for three parallel assays (A549 cells; 72 h, 25 μm): 35.41% and 32.43% and 39.37%; The mean inhibitory ratio (%) (A549 cells; 72 h, 25 μm): 35.74%; The inhibitory ratio (%) for three parallel assays (A549 cells; 72 h, 40 μm): 50.18% and 45.68% and 50.45%; The mean inhibitory ratio (%) (A549 cells; 72 h, 40 μm): 48.77%; The inhibitory ratio (%) for three parallel assays (A549 cells; 72 h, 50 μm): 20.27% and 17.70% and 22.30%; The mean inhibitory ratio (%) (A549 cells; 72 h, 50 μm): 20.09%; The inhibitory ratio (%) for three parallel assays (A549 cells; 72 h, 80 μm): 29.59% and 28.51% and 30.14%; The mean inhibitory ratio (%) (A549 cells; 72 h, 80 μm): 29.41%; The inhibitory ratio (%) for three parallel assays (A549 cells; 72 h, 100 μm): 53.11% and 52.70% and 54.05%; The mean inhibitory ratio (%) (A549 cells; 72 h, 100 μm): 53.29%
